Experiments:
[1] = biological target: human vasopressin V1a receptor (Homo sapiens (Human), UniProt P37288); experiment: Vasopressin V1a receptor binding assay; settings: selectivity quotient, human V1a vs human V1b
Method: The test substances were dissolved in a concentration of 5 mM M in DMSO. Further dilution of these DMSO solutions took place as described for V1b.
The membrane pellet was again homogenized in a High-Pressure-Homogenizer, Polytec 50K at 1500 PSI (Heinemann, Germany) and subsequently taken up in 50 mM Tris-HCl, pH 7.4, homogenized and stored in aliquots frozen in liquid nitrogen at −190° C.
The incubation buffer was: 50 mM Tris, 10 mM MgCl2, 0.1% BSA, pH 7.4.
Duplicate determinations were carried out.
After incubation (60 minutes at room temperature), the samples were processed as described for V1b.
The binding parameters were calculated by nonlinear regression in SAS.

[2] = biological target: human vasopressin V1b receptor (Homo sapiens (Human), UniProt P47901); experiment: biochemical
human vasopressin V1b receptor, sequence (P47901 whole entry): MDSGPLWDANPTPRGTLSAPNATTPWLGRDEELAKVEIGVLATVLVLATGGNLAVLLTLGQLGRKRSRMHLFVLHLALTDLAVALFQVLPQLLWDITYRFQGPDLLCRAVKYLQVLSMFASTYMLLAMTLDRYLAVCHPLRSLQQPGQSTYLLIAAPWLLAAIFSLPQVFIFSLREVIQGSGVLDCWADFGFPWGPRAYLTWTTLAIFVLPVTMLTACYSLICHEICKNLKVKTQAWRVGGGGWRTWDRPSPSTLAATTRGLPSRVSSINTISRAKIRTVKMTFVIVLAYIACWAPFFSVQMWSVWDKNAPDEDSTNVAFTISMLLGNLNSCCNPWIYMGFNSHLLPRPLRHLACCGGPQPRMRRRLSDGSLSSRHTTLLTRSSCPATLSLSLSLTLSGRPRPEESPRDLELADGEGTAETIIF

human vasopressin V1a receptor, sequence (P37288 whole entry): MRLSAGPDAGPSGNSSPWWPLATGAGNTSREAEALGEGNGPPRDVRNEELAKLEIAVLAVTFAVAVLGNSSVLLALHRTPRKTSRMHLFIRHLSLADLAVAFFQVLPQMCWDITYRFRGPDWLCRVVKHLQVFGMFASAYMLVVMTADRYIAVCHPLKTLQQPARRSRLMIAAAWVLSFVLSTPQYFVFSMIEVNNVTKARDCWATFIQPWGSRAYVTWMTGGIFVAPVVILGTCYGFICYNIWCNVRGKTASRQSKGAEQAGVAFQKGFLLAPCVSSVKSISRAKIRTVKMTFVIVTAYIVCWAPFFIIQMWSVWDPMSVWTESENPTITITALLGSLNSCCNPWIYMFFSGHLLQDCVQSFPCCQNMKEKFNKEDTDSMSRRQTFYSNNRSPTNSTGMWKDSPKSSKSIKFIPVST

Ki(h-V1a)/Ki(h-V1b) [1]	Ki [2] [µM]	SMILES
+++ (>75)	0.01 to 0.1	CC(C)NC(=O)Cn1c(-c2cccc(Cl)c2)nc2ccc([C@H]3C[C@@H](CN4CC(C)OC(C)C4)C3)cc2c1=O (relative stereo) [Example 43, cis-2-[2-(3-Chlorophenyl)-6-[3-[(2,6-dimethylmorpholin-4-yl)methyl]cyclobutyl]-4-oxo-quinazolin-3-yl]-N-isopropyl-acetamide]
+++ (>75)	0.01 to 0.1	CC(C)NC(=O)Cn1c(-c2cccc(Cl)c2)nc2ccc(C3=CC(CN4CCCCC4)C3)cc2c1=O (stereo not drawn) [Example 1, 2-(2-(3-Chlorophenyl)-4-oxo-6-(3-(piperidin-1-ylmethyl)cyclobut-1-en-1-yl)quinazolin-3(4H)-yl)-N-isopropylacetamide]
++ (25-75)	0.01 to 0.1	CC(C)NC(=O)Cn1c(-c2cccc(Cl)c2)nc2ccc(C3CC3CCN3CCCCC3)cc2c1=O (stereo not drawn) [Example 3, 2-[2-(3-Chlorophenyl)-4-oxo-6-[2-[2-(1-piperidyl)ethyl]cyclopropyl]quinazolin-3-yl]-N-isopropyl-acetamide]
+++ (>75)	0.01 to 0.1	CC(C)NC(=O)Cn1c(-c2cccc(Cl)c2)nc2ccc(C3CC3CN3CCCCC3)cc2c1=O (stereo not drawn) [Example 4, 2-[2-(3-Chlorophenyl)-4-oxo-6-[2-(1-piperidylmethyl)cyclopropyl]quinazolin-3-yl]-N-isopropyl-acetamide]
+++ (>75)	0.01 to 0.1	CC(C)NC(=O)Cn1c(-c2cccc(Cl)c2)nc2ccc([C@H]3C[C@@H](CN4CCC(C#N)CC4)C3)cc2c1=O [Example 7, Cis-2-[2-(3-Chlorophenyl)-6-[3-[(4-cyano-1-piperidyl)methyl]cyclobutyl]-4-oxo-quinazolin-3-yl]-N-isopropyl-acetamide]
+++ (>75)	0.001 to 0.01	CC(C)NC(=O)Cn1c(-c2cccc(Cl)c2)nc2ccc([C@H]3C[C@@H](CN4CC[C@@H](F)C4)C3)cc2c1=O [Example 11, cis-2-[2-(3-Chlorophenyl)-6-[3-[[(3R)-3-fluoropyrrolidin-1-yl]methyl]cyclobutyl]-4-oxo-quinazolin-3-yl]-N-isopropyl-acetamide]
+++ (>75)	0.001 to 0.01	CC(C)NC(=O)Cn1c(-c2cccc(Cl)c2)nc2ccc([C@H]3C[C@@H](CN4CCC(F)(F)CC4)C3)cc2c1=O [Example 12, cis-2-[2-(3-Chlorophenyl)-6-[3-[(4,4-difluoro-1-piperidyl)methyl]cyclobutyl]-4-oxo-quinazolin-3-yl]-N-isopropyl-acetamide]
+++ (>75)	0.001 to 0.01	CC(C)NC(=O)Cn1c(-c2cccc(Cl)c2)nc2ccc([C@H]3C[C@@H](CN4CCOCC4)C3)cc2c1=O [Example 13, cis-2-[2-(3-Chlorophenyl)-6-[3-(morpholinomethyl)cyclobutyl]-4-oxo-quinazolin-3-yl]-N-isopropyl-acetamide]
+++ (>75)	0.01 to 0.1	CCN(CC)C[C@H]1C[C@@H](c2ccc3nc(-c4cccc(Cl)c4)n(CC(=O)NC(C)C)c(=O)c3c2)C1 [Example 15, cis-2-[2-(3-Chlorophenyl)-6-[3-(diethylaminomethyl)cyclobutyl]-4-oxo-quinazolin-3-yl]-N-isopropyl-acetamide]
+++ (>75)	0.001 to 0.01	CC(C)NC(=O)Cn1c(-c2cccc(Cl)c2)nc2ccc([C@H]3C[C@@H](CN4CC=CCC4)C3)cc2c1=O [Example 18, cis-2-[2-(3-Chlorophenyl)-6-[3-(3,6-dihydro-2H-pyridin-1-ylmethyl)cyclobutyl]-4-oxo-quinazolin-3-yl]-N-isopropyl-acetamide]
+++ (>75)	0.01 to 0.1	CCOC1CCN(C[C@H]2C[C@@H](c3ccc4nc(-c5cccc(Cl)c5)n(CC(=O)NC(C)C)c(=O)c4c3)C2)CC1 [Example 20, cis-2-[2-(3-Chlorophenyl)-6-[3-[(4-ethoxy-1-piperidyl)methyl]cyclobutyl]-4-oxo-quinazolin-3-yl]-N-isopropyl-acetamide]
+++ (>75)	0.01 to 0.1	CC(C)NC(=O)Cn1c(-c2cccc(Cl)c2)nc2ccc([C@H]3C[C@@H](CN4CC[C@H](C)C4)C3)cc2c1=O [Example 24, cis-2-[2-(3-Chlorophenyl)-6-[3-[[(3S)-3-methylpyrrolidin-1-yl]methyl]cyclobutyl]-4-oxo-quinazolin-3-yl]-N-isopropyl-acetamide]
	0.001 to 0.01	CC(C)NC(=O)Cn1c(-c2cccc(Cl)c2)nc2ccc([C@H]3C[C@@H](CN4CC(O)C4)C3)cc2c1=O [Example 40, cis-2-[2-(3-Chlorophenyl)-6-[3-[(3-hydroxyazetidin-1-yl)methyl]cyclobutyl]-4-oxo-quinazolin-3-yl]-N-isopropyl-acetamide]

Further lines, the molecule ahead of its results:

SMILES	Ki(h-V1a)/Ki(h-V1b) [1]	Ki [2] [µM]
CC(C)NC(=O)Cn1c(-c2cccc(Cl)c2)nc2ccc([C@H]3C[C@@H](CN4CCCC(C#N)C4)C3)cc2c1=O (relative stereo) [Example 14, cis-2-[2-(3-Chlorophenyl)-6-[3-[(3-cyano-1-piperidyl)methyl]cyclobutyl]-4-oxo-quinazolin-3-yl]-N-isopropyl-acetamide]	+++ (>75)	0.001 to 0.01
CC(C)NC(=O)Cn1c(-c2cccc(Cl)c2)nc2ccc([C@H]3C[C@@H](CN4C5CCC4CC(O)C5)C3)cc2c1=O (relative stereo) [Example 23, cis-2-[2-(3-Chlorophenyl)-6-[3-[(3-hydroxy-8-azabicyclo[3.2.1]octan-8-yl)methyl]cyclobutyl]-4-oxo-quinazolin-3-yl]-N-isopropyl-acetamide]	+++ (>75)	0.001 to 0.01
CC(C)NC(=O)Cn1c(-c2cccc(Cl)c2)nc2ccc([C@H]3C[C@@H](CN4CCCC(F)C4)C3)cc2c1=O (relative stereo) [Example 39, cis-2-[2-(3-Chlorophenyl)-6-[3-[(3-fluoro-1-piperidyl)methyl]cyclobutyl]-4-oxo-quinazolin-3-yl]-N-isopropyl-acetamide]	+++ (>75)	0.001 to 0.01
CC(C)NC(=O)Cn1c(-c2cccc(Cl)c2)nc2ccc([C@H]3C[C@@H](CN4CCCCC4)C3)cc2c1=O [Example 2a, cis-2-[2-(3-chlorophenyl)-4-oxo-6-[3-(1-piperidylmethyl)cyclobutyl]quinazolin-3-yl]-N-isopropyl-acetamide]	+++ (>75)	0.001 to 0.01
CC(C)NC(=O)Cn1c(-c2cccc(Cl)c2)nc2ccc([C@H]3C[C@H](CN4CCCCC4)C3)cc2c1=O [Example 2b, trans-2-[2-(3-chlorophenyl)-4-oxo-6-[3-(1-piperidylmethyl)cyclobutyl]quinazolin-3-yl]-N-isopropyl-acetamide]	+++ (>75)	0.01 to 0.1
CC(C)NC(=O)Cn1c(-c2cccc(Cl)c2)nc2ccc([C@H]3C[C@@H](CN4CCSCC4)C3)cc2c1=O [Example 8, cis-2-[2-(3-Chlorophenyl)-4-oxo-6-[3-(thiomorpholinomethyl)cyclobutyl]quinazolin-3-yl]-N-isopropyl-acetamide]	+++ (>75)	< 0.001
CC(C)NC(=O)Cn1c(-c2cccc(Cl)c2)nc2ccc([C@H]3C[C@@H](CN4CCCC4)C3)cc2c1=O [Example 9, cis-2-[2-(3-Chlorophenyl)-4-oxo-6-[3-(pyrrolidin-1-ylmethyl)cyclobutyl]quinazolin-3-yl]-N-isopropyl-acetamide]	+++ (>75)	0.01 to 0.1
COC1CCN(C[C@H]2C[C@@H](c3ccc4nc(-c5cccc(Cl)c5)n(CC(=O)NC(C)C)c(=O)c4c3)C2)CC1 [Example 10, cis-2-[2-(3-Chlorophenyl)-6-[3-[(4-methoxy-1-piperidyl)methyl]cyclobutyl]-4-oxo-quinazolin-3-yl]-N-isopropyl-acetamide]	+++ (>75)	0.001 to 0.01
CC(C)NC(=O)Cn1c(-c2cccc(Cl)c2)nc2ccc([C@H]3C[C@@H](CN4CC[C@H](F)C4)C3)cc2c1=O [Example 16, cis-2-[2-(3-Chlorophenyl)-6-[3-[ [(3S)-3-fluoropyrrolidin-1-yl]methyl]cyclobutyl]-4-oxo-quinazolin-3-yl]-N-isopropyl-acetamide]	+++ (>75)	0.001 to 0.01
CC(C)NC(=O)Cn1c(-c2cccc(Cl)c2)nc2ccc([C@H]3C[C@@H](CN(C)C)C3)cc2c1=O [Example 17, cis-2-[2-(3-Chlorophenyl)-6-[3-(dimethylaminomethyl)cyclobutyl]-4-oxo-quinazolin-3-yl]-N-isopropyl-acetamide]	+++ (>75)	0.01 to 0.1
CC(C)NC(=O)Cn1c(-c2cccc(Cl)c2)nc2ccc([C@H]3C[C@@H](CN4CC(F)C4)C3)cc2c1=O [Example 19, cis-2-[2-(3-Chlorophenyl)-6-[3-[(3-fluoroazetidin-1-yl)methyl]cyclobutyl]-4-oxo-quinazolin-3-yl]-N-isopropyl-acetamide]	+++ (>75)	0.001 to 0.01
CC(C)NC(=O)Cn1c(-c2cccc(Cl)c2)nc2ccc([C@H]3C[C@@H](CN4CCCCCC4)C3)cc2c1=O [Example 21, cis-2-[6-[3-(Azepan-1-ylmethyl)cyclobutyl]-2-(3-chlorophenyl)-4-oxo-quinazolin-3-yl]-N-isopropyl-acetamide]	+++ (>75)	0.001 to 0.01
CC1CCN(C[C@H]2C[C@@H](c3ccc4nc(-c5cccc(Cl)c5)n(CC(=O)NC(C)C)c(=O)c4c3)C2)CC1 [Example 22, cis-2-[2-(3-Chlorophenyl)-6-[3-[(4-methyl-1-piperidyl)methyl]cyclobutyl]-4-oxo-quinazolin-3-yl]-N-isopropyl-acetamide]	+++ (>75)	0.001 to 0.01

Reference: US9617226B2 (AbbVie Deutschland GmbH & Co. KG, priority 2014, dated 2017)
